From the supplement of paper PMC6045584 come the findings set out here.

± gives the standard deviation of the averaged measurements.

Compound in test [1]: COc1cc([C@@H]2c3cc4c(cc3[C@@H](O[C@@H]3O[C@@H]5CO[C@@H](C)O[C@H]5[C@H](O)[C@H]3O)[C@H]3COC(=O)[C@H]23)OCO4)cc(OC)c1O [ETOPOSIDE]
The test can be described thus: surviving fraction relative to DMSO-only wells; higher = less growth inhibition. The note with it: exposure time: 5 days. Put shortly: (§1)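 For each tumour cell line, log-phase cells were put into 384-well plates at 250–500 cells per well, then after 24 hours exposed continuously for five days to inhibitors at 0.5, 1, 5, 10, 50, 100, 500 and 1000 nM. Viability was assessed by CellTiter-Glo luminescence, with surviving fraction expressed relative to the median of DMSO-only wells. Lines were screened three times and retained only if replicate Pearson r exceeded 0.7 and median Z' exceeded 0.3.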

Compound in test [2]: CO[C@H]1C[C@@H]2CC[C@@H](C)[C@@](O)(O2)C(=O)C(=O)N2CCCC[C@H]2C(=O)O[C@H]([C@H](C)C[C@@H]2CC[C@@H](OCCO)[C@H](OC)C2)CC(=O)[C@H](C)/C=C(\C)[C@@H](O)[C@@H](OC)C(=O)[C@H](C)C[C@H](C)/C=C/C=C/C=C/1C [EVEROLIMUS]
The description is as above. The note with it: exposure time: 5 days. Summed up:
as §1

Turning to 22RV1 PROSTATE, the surviving fraction in test [1] (0.5 nM) was 1.03 ± 0.084; in test [1] (1 nM), 1 ± 0.083; in test [1] (5 nM), 0.928 ± 0.059; in test [1] (10 nM) it was 0.939 ± 0.023; in test [1] (50 nM), 0.922 ± 0.046; in test [1] (100 nM), 0.747 ± 0.047. The surviving fraction in test [1] (500 nM) was found to be 0.42 ± 0.034; in test [1] (1000 nM), 0.345 ± 0.03; in test [2] (0.5 nM), 0.788 ± 0.065; in test [2] (1 nM), 0.588 ± 0.14; in test [2] (5 nM), 0.452 ± 0.043; in test [2] (10 nM) it was 0.375 ± 0.031. Further, the surviving fraction amounted to 0.515 ± 0.24 in test [2] (50 nM), 0.374 ± 0.032 in test [2] (100 nM), 0.365 ± 0.061 in test [2] (500 nM) and 0.375 ± 0.028 in test [2] (1000 nM).
As to 93VU HEADNECK, the surviving fraction is 1 ± 0.042 in test [1] (0.5 nM); 1.07 ± 0.033 in test [1] (1 nM); 1.11 ± 0.037 in test [1] (5 nM); 1.05 ± 0.15 in test [1] (10 nM); 1.03 ± 0.12 in test [1] (50 nM); 1.14 ± 0.12 in test [1] (100 nM). Moreover, the surviving fraction in test [1] (500 nM) came to 0.953 ± 0.054; in test [1] (1000 nM), 0.896 ± 0.021; in test [2] (0.5 nM), 0.953 ± 0.098; in test [2] (1 nM) it was 0.905 ± 0.076; in test [2] (5 nM) it was 0.865 ± 0.024; in test [2] (10 nM), 0.841 ± 0.065. The surviving fraction in test [2] (50 nM) came out at 0.85 ± 0.051; in test [2] (100 nM) it was 0.767 ± 0.11; in test [2] (500 nM), 0.706 ± 0.027; in test [2] (1000 nM), 0.649 ± 0.049.
Take 143B BONE: the surviving fraction worked out at 0.981 ± 0.021 in test [1] (0.5 nM); 0.993 in test [1] (1 nM); 1.01 ± 0.016 in test [1] (5 nM); 1.03 ± 0.012 in test [1] (10 nM); 1.01 ± 0.012 in test [1] (50 nM); 0.979 ± 0.079 in test [1] (100 nM). Further, the surviving fraction is 0.484 ± 0.005 in test [1] (500 nM); 0.297 in test [1] (1000 nM); 0.954 ± 0.032 in test [2] (0.5 nM); 0.948 ± 0.022 in test [2] (1 nM); 0.846 ± 0.03 in test [2] (5 nM); 0.824 ± 0.018 in test [2] (10 nM). The surviving fraction worked out at 0.8355 ± 0.00071 in test [2] (50 nM), 0.825 ± 0.029 in test [2] (100 nM), 0.793 ± 0.057 in test [2] (500 nM) and 0.827 ± 0.096 in test [2] (1000 nM).
On to A549 LUNG, for which the surviving fraction is 0.989 ± 0.071 in test [1] (0.5 nM); 0.99 ± 0.074 in test [1] (1 nM); 0.988 ± 0.026 in test [1] (5 nM); 0.976 ± 0.05 in test [1] (10 nM); 1 ± 0.057 in test [1] (50 nM); 1.09 ± 0.057 in test [1] (100 nM). Besides, the surviving fraction came out at 0.958 ± 0.048 in test [1] (500 nM); 0.67 ± 0.017 in test [1] (1000 nM); 0.962 ± 0.022 in test [2] (0.5 nM); 0.927 ± 0.018 in test [2] (1 nM); 0.8767 ± 0.0076 in test [2] (5 nM); 0.842 ± 0.017 in test [2] (10 nM). Moreover, the surviving fraction turned out to be 0.855 ± 0.041 in test [2] (50 nM), 0.826 ± 0.048 in test [2] (100 nM), 0.777 ± 0.0096 in test [2] (500 nM) and 0.759 ± 0.058 in test [2] (1000 nM).
As for ASKA SYNOVIAL, the surviving fraction worked out at 1.07 ± 0.14 in test [1] (0.5 nM); 0.949 ± 0.012 in test [1] (1 nM); 0.985 ± 0.052 in test [1] (5 nM); 0.881 ± 0.036 in test [1] (10 nM); 0.68 ± 0.049 in test [1] (50 nM); 0.453 ± 0.015 in test [1] (100 nM). For the same test system, the surviving fraction stood at 0.3413 ± 0.0023 in test [1] (500 nM); 0.319 ± 0.0085 in test [1] (1000 nM); 1 ± 0.077 in test [2] (0.5 nM); 0.93 ± 0.1 in test [2] (1 nM); 0.787 ± 0.085 in test [2] (5 nM); 0.62 ± 0.049 in test [2] (10 nM). The surviving fraction in test [2] (50 nM) is 0.612 ± 0.022; in test [2] (100 nM), 0.576 ± 0.051; in test [2] (500 nM) it was 0.531 ± 0.036; in test [2] (1000 nM), 0.577 ± 0.04.
In the case of BT20 BREAST, the surviving fraction was 1.13 ± 0.073 in test [1] (0.5 nM); 1.17 ± 0.089 in test [1] (1 nM); 0.936 ± 0.17 in test [1] (5 nM); 1.04 ± 0.13 in test [1] (10 nM); 0.995 ± 0.098 in test [1] (50 nM); 0.919 ± 0.14 in test [1] (100 nM). For the same test system, the surviving fraction in test [1] (500 nM) was determined as 0.454 ± 0.11; in test [1] (1000 nM) it was 0.211 ± 0.052; in test [2] (0.5 nM) it was 0.595 ± 0.042; in test [2] (1 nM), 0.46 ± 0.037; in test [2] (5 nM) it was 0.394 ± 0.041; in test [2] (10 nM) it was 0.378 ± 0.042. The surviving fraction in test [2] (50 nM) came out at 0.353 ± 0.015; in test [2] (100 nM), 0.369 ± 0.02; in test [2] (500 nM) it was 0.34 ± 0.018; in test [2] (1000 nM), 0.374 ± 0.018.
Turning to BT549 BREAST, the surviving fraction came to 0.976 ± 0.13 in test [1] (0.5 nM); 1.15 ± 0.075 in test [1] (1 nM); 1.06 ± 0.13 in test [1] (5 nM); 1.05 ± 0.12 in test [1] (10 nM); 0.939 ± 0.069 in test [1] (50 nM); 0.907 ± 0.13 in test [1] (100 nM). Further, the surviving fraction in test [1] (500 nM) was determined as 0.32 ± 0.027; in test [1] (1000 nM), 0.198 ± 0.034; in test [2] (0.5 nM) it was 0.569 ± 0.026; in test [2] (1 nM), 0.531 ± 0.061; in test [2] (5 nM), 0.415 ± 0.032; in test [2] (10 nM), 0.499 ± 0.079. Further, the surviving fraction in test [2] (50 nM) is 0.4507 ± 0.0023; in test [2] (100 nM) it was 0.418 ± 0.05; in test [2] (500 nM), 0.365 ± 0.017; in test [2] (1000 nM) it was 0.356 ± 0.027.
Turning to CADOES1 SOFT TISSUE, the surviving fraction was 0.948 ± 0.12 in test [1] (0.5 nM); 0.908 ± 0.12 in test [1] (1 nM); 0.966 ± 0.04 in test [1] (5 nM); 0.97 ± 0.024 in test [1] (10 nM); 0.819 ± 0.048 in test [1] (50 nM); 0.977 ± 0.023 in test [1] (100 nM). Further, the surviving fraction in test [1] (500 nM) came to 0.735 ± 0.053; in test [1] (1000 nM) it was 0.528 ± 0.069; in test [2] (0.5 nM), 0.842 ± 0.1; in test [2] (1 nM), 0.74 ± 0.072; in test [2] (5 nM), 0.529 ± 0.052; in test [2] (10 nM), 0.472 ± 0.11. In addition, the surviving fraction in test [2] (50 nM) is 0.309 ± 0.036; in test [2] (100 nM), 0.344 ± 0.098; in test [2] (500 nM), 0.259 ± 0.017; in test [2] (1000 nM), 0.268 ± 0.04.
